The values below come from patent US20140113898A1, “BISARYLSULFONE AND DIALKYLARYLSULFONE COMPOUNDS AS CALCIUM CHANNEL BLOCKERS” (Zalicus Pharmaceuticals Ltd., priority 2010, published 2014).

The first test deals with T1, CaV2.2 (Homo sapiens, UniProt Q00975).
T1 construct: expressed in transfected cells; host or cells: unnamed doxycycline-inducible cell line
T1 sequence (Q00975 whole entry): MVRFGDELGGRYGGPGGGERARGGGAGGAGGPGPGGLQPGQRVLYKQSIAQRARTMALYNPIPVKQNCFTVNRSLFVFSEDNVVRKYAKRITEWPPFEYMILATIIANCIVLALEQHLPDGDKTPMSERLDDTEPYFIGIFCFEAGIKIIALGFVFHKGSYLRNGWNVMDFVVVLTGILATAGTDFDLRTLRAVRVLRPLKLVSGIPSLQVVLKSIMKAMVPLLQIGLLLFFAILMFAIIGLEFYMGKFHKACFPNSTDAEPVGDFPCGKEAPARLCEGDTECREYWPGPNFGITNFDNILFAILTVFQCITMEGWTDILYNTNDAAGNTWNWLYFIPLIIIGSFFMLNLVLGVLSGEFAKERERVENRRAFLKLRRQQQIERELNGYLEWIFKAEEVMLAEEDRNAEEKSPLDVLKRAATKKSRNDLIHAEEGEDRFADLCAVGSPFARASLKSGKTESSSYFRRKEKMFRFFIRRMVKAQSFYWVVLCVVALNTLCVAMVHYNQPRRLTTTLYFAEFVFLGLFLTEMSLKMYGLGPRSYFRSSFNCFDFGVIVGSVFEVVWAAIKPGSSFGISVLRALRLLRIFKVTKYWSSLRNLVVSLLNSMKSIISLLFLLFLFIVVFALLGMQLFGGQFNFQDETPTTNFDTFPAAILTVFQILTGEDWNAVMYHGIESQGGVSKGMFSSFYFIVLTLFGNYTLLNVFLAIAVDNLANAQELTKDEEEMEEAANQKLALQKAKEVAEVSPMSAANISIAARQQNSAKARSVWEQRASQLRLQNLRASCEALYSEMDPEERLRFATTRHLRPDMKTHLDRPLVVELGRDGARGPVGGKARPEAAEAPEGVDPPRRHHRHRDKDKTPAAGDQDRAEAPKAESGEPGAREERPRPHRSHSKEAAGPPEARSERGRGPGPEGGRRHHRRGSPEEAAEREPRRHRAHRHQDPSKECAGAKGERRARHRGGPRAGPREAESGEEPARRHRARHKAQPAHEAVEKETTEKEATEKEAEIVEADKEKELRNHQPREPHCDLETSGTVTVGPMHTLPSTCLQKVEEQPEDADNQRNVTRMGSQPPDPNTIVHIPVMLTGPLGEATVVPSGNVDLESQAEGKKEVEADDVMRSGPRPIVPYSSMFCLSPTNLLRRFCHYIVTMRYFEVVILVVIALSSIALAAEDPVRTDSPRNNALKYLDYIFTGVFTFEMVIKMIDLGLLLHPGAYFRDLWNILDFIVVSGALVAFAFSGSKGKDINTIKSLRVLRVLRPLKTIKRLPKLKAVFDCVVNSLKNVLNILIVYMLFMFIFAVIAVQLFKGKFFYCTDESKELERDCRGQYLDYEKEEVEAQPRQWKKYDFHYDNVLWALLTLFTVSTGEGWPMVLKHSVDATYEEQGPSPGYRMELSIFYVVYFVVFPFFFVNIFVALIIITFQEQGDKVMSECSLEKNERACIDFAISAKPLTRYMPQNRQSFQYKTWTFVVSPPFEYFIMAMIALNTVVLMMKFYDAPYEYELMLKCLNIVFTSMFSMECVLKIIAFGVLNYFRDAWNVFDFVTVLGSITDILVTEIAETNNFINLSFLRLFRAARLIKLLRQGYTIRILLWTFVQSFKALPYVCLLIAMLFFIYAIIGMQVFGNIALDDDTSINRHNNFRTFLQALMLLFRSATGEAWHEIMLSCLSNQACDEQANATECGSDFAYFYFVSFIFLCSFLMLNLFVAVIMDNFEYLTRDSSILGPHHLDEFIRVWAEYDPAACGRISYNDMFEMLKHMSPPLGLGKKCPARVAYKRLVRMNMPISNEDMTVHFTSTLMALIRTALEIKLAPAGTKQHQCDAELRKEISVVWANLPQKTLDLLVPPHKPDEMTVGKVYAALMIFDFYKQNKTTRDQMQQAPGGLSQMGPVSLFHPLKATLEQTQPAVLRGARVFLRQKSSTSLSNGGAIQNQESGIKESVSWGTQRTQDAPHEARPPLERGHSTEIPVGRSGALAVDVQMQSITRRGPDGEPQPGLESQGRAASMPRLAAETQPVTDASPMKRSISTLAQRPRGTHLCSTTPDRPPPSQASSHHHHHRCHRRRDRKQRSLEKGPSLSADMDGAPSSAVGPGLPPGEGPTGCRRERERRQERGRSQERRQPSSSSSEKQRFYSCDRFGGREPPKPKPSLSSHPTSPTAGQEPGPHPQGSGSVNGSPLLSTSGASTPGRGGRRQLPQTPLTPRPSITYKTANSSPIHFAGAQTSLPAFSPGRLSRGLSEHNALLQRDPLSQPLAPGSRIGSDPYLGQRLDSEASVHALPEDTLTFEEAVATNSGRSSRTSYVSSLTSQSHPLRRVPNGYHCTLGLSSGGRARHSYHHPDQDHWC
T1 sequence (P54284 whole entry partner): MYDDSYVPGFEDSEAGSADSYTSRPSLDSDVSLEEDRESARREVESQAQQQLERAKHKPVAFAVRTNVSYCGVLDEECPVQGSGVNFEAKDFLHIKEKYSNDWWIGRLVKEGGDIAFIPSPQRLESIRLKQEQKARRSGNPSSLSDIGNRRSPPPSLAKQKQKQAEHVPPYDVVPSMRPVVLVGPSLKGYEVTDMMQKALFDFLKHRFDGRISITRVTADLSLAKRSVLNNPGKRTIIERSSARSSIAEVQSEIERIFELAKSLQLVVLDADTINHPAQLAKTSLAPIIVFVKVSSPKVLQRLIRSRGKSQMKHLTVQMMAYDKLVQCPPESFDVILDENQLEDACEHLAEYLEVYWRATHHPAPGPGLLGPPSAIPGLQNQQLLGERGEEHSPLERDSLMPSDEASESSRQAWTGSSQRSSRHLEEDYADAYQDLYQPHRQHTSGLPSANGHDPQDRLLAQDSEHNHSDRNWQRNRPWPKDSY
T1 sequence (P54289 25-946 partner limits assumed): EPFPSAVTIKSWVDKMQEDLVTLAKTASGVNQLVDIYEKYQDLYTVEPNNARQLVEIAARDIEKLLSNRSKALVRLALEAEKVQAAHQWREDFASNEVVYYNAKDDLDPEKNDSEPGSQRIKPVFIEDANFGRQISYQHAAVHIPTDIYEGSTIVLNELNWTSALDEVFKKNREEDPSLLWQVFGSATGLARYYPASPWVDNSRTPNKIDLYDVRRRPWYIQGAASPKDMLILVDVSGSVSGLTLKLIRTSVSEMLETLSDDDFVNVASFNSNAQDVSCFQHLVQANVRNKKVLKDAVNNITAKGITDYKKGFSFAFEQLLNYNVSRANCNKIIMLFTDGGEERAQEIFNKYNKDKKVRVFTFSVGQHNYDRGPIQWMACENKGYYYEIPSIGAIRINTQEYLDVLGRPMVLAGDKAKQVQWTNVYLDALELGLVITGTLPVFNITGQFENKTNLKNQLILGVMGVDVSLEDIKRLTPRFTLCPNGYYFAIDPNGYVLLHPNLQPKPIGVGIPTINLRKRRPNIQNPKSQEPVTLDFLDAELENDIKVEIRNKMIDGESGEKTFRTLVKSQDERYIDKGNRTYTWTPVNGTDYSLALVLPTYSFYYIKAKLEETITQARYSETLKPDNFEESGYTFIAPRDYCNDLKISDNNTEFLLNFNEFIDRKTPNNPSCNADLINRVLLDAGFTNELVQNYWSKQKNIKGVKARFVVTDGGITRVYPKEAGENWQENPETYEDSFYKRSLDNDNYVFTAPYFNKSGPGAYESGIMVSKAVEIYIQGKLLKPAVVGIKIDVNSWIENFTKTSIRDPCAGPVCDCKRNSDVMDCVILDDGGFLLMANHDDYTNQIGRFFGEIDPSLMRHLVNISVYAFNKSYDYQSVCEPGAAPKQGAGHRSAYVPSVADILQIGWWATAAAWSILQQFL
T1 sequence (P54289 947-1103 partner limits assumed): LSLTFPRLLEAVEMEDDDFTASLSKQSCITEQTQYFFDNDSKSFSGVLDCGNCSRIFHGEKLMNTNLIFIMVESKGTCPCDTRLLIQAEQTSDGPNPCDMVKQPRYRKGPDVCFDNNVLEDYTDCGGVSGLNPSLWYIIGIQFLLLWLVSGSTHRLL
Description: High-throughput CaV2.2/Kir2.3 FLIPR fluorescent assay. The test is classed as cell-based. The settings on record: FLIPR data CaV2.2 (nM), Table 5; Fluo-4 FLIPR; closed or inactivated state not stated. How it is done:
Cells were plated in 384-well, clear-bottom, black-walled, poly-D-lysine coated plates (Becton Dickinson, Franklin Lake, N.J.) 2 days prior to use in the FLIPR assay. 100 μL of cells (1.4×10^6 cell/mL) containing doxycyline (Sigma-Aldrich, 1.5 μg/mL; to induce channel expression) were added to each well using a Multidrop (Thermo Scientific, Waltham, Mass.) and were maintained in 5% CO2 incubator at 37° C. On the morning of the assay, cells were transferred to a 5% CO2 incubator at 29° C.
Cells were washed with a wash buffer containing (in mM): 118 NaCl, 18.4 HEPES, 11.7 D-glucose, 2 CaCl2, 0.5 MgSO4, 4.7 KCl, 1.2 KH2PO4, pH adjusted to 7.2 with NaOH. 4.4 μM of the fluorescent indicator dye, Fluo-4 (Invitrogen), prepared in pluronic acid (Sigma-Aldrich), was loaded into the wells and incubated for 45 minutes at 29° C. in 5% CO2. Cells were then rinsed with either a 2 mM KCl closed-state buffer (in mM: 138.5 NaCl, 10 HEPES, 10 D-glucose, 1 CaCl2, and 2 KCl, with the pH adjusted to 7.4 with NaOH) when performing the closed-state assay or 12.5 mM KCl inactivated-state buffer (in mM: 128 NaCl, 10 HEPES, 10 D-glucose, 1 CaCl2, and 12.5 mM KCl, with the pH adjusted to 7.4 with NaOH) when performing the inactivated-state assay.
Calcium entry was evoked with an addition of 130 mM KCl stimulation buffer (in mM: 10.5 NaCl, 10 HEPES, 10 D-glucose, 1 CaCl2, and 130 KCl, with the pH adjusted to 7.4 with NaOH) for both the closed-state or inactivated-state assay. A change in the Fluo-4 fluorescence signal was assessed using FLIPR^TETRA™ instrument (Molecular Devices, Sunnyvale, Calif.) for 3 minutes following the elevation of extracellular KCl using an illumination wavelength of 470-495 nm with emissions recorded at 515-575 nm.
Concentration-dependent response curves were obtained by comparing the fluorescence signal in the presence of compound and fitted with a logistic function (1) to obtain the concentration that inhibited 50% (IC50) of the RLU signal using OriginPro v.7.5 software (OriginLab, Northampton, Mass.).
To assess the quality of the FLIPR assays the Z-factor (2) was used to quantify the suitability of the assay conditions using the following equation: […]
Data are expressed as mean and standard deviation (SD).
For the compound `CC(C)(C(=O)NCCC(F)(F)F)S(=O)(=O)c1cccc(C(F)(F)F)c1` [Compound 125, 2-methyl-2-((3-(trifluoromethyl)phenyl)sulfonyl)-N-(3,3,3-trifluoropropyl)propanamide], the IC50 is 10000 nM.

The test is the same for the next values; noted with them: Table 4; Fluo-4 FLIPR; closed or inactivated state not stated; read-out: FLIPR data CaV2.2.
For `O=C(CCC(F)(F)F)NCc1ccc(S(=O)(=O)c2cccc(C(F)(F)F)c2)cn1` [Compound 105, 4,4,4-trifluoro-N-((5-((3-(trifluoromethyl)phenyl)sulfonyl)pyridin-2-yl)methyl)butanamide], the IC50 was 2510 nM.

On to `COc1cc(C(=O)NCc2ccccc2S(=O)(=O)c2cccc(C(F)(F)F)c2)cc(Cl)n1` [Compound 49, 2-chloro-6-methoxy-N-(2-((3-(trifluoromethyl)phenyl)sulfonyl)benzyl)isonicotinamide], for which the IC50 amounted to 1040 nM. Turning to `O=C(NCc1ccccc1S(=O)(=O)c1cccc(C(F)(F)F)c1)c1cnc(C(F)(F)F)nc1` [Compound 45, 2-(trifluoromethyl)-N-(2-((3-(trifluoromethyl)phenyl)sulfonyl)benzyl)pyrimidine-5-carboxamide], the IC50 worked out at 1110 nM.

Consider `O=C(NCc1ccc(S(=O)(=O)c2cccc(C(F)(F)F)c2)cc1)C1CCCN1` (stereo in doubt) [Compound 77, (R)-N-(4-((3-(trifluoromethyl)phenyl)sulfonyl)benzyl)pyrrolidine-2-carboxamide], for which the IC50 worked out at 690 nM. Same read-out and setting: the figure for `COc1cc(C(=O)NCc2ccc(S(=O)(=O)c3cccc(C(F)(F)F)c3)cn2)cc(Cl)n1` [Compound 101, 2-chloro-6-methoxy-N-((5-((3-(trifluoromethyl)phenyl)sulfonyl)pyridin-2-yl)methyl)isonicotinamide] is 1460 nM; for `O=C(NCc1ccccc1S(=O)(=O)c1cccc(C(F)(F)F)c1)c1ccnn1CC(F)(F)F` [Compound 48, 1-(2,2,2-trifluoroethyl)-N-(2-((3-(trifluoromethyl)phenyl)sulfonyl)benzyl)-1H-pyrazole-5-carboxamide] it is 1650 nM. Take `O=C(NCc1ccc(S(=O)(=O)c2cccc(C(F)(F)F)c2)cn1)c1ccnc(C(F)(F)F)c1` [Compound 102, 2-(trifluoromethyl)-N-((5-((3-(trifluoromethyl)phenyl)sulfonyl)pyridin-2-yl)methyl)isonicotinamide]: the IC50 was 1410 nM.

Take `O=C(CCC(F)(F)F)NCc1cc(S(=O)(=O)c2cccc(C(F)(F)F)c2)ccn1` [Compound 114, 4,4,4-trifluoro-N-((4-((3-(trifluoromethyl)phenyl)sulfonyl)pyridin-2-yl)methyl)butanamide]: the IC50 stood at 3320 nM. Still for that read-out and setting: under `O=C(NCc1ccccc1S(=O)(=O)c1cccc(C(F)(F)F)c1)c1ccnc(C(F)(F)F)c1` [Compound 50, 2-(trifluoromethyl)-N-(2-((3-(trifluoromethyl)phenyl)sulfonyl)benzyl)isonicotinamide] stands 1210 nM; under `CO[C@H]1CN[C@@H](C(=O)NCc2ccc(S(=O)(=O)c3cccc(C(F)(F)F)c3)cc2)C1` [Compound 62, (2R,4R)-4-methoxy-N-(4-((3-(trifluoromethyl)phenyl)sulfonyl)benzyl)pyrrolidine-2-carboxamide], 620 nM; under `O=C(NCc1ccc(S(=O)(=O)c2cccc(C(F)(F)F)c2)cn1)[C@H]1C[C@@H](O)CN1` [Compound 106, (2R,4R)-4-hydroxy-N-((5-((3-(trifluoromethyl)phenyl)sulfonyl)pyridin-2-yl)methyl)pyrrolidine-2-carboxamide], 5850 nM.

Still in this test, the particulars now being: Table 5; Fluo-4 FLIPR; closed or inactivated state not stated; read-out: FLIPR data CaV2.2.
For `CC(C)(CNC(=O)c1ncc(C(F)(F)F)cc1S(C)(=O)=O)S(=O)(=O)c1cccc(C(F)(F)F)c1` [Compound 156, N-(2-methyl-2-((3-(trifluoromethyl)phenyl)sulfonyl)propyl)-3-(methylsulfonyl)-5-(trifluoromethyl)picolinamide], the IC50 was 1080 nM. The same measure, in the same setting: under `CC(C)(CNC(=O)c1ccnc(F)c1)S(=O)(=O)c1cccc(C(F)(F)F)c1` [Compound 177, 2-fluoro-N-(2-methyl-2-((3-(trifluoromethyl)phenyl)sulfonyl)propyl)isonicotinamide] stands 10000 nM; under `CC(C)(CCNC(=O)CC1CCNCC1)S(=O)(=O)c1cccc(C(F)(F)F)c1` [Compound 206, N-(3-methyl-3-((3-(trifluoromethyl)phenyl)sulfonyl)butyl)-2-(piperidin-4-yl)acetamide], 10000 nM; under `Cc1c(C(=O)NCCC(C)(C)S(=O)(=O)c2cccc(C(F)(F)F)c2)ncn(C(C)C)c1=O` [Compound 215, 1-isopropyl-5-methyl-N-(3-methyl-3-((3-(trifluoromethyl)phenyl)sulfonyl)butyl)-6-oxo-1,6-dihydropyrimidine-4-carboxamide], 3160 nM. As to `CC(C)(CCNC(=O)c1ccc(C(F)(F)F)cc1S(C)(=O)=O)S(=O)(=O)c1cc(F)cc(C(F)(F)F)c1` [Compound 213, N-(3-((3-fluoro-5-(trifluoromethyl)phenyl)sulfonyl)-3-methylbutyl)-2-(methylsulfonyl)-4-(trifluoromethyl)benzamide], the IC50 was found to be 1120 nM. For the compound `CC(C)(CN1Cc2nc(C(F)(F)F)ccc2C1=O)S(=O)(=O)c1cccc(C(F)(F)F)c1` [Compound 182, 6-(2-methyl-2-((3-(trifluoromethyl)phenyl)sulfonyl)propyl)-2-(trifluoromethyl)-6,7-dihydro-5H-pyrrolo[3,4-b]pyridin-5-one], the IC50 was 10000 nM. As to `COc1cc(CCNC(=O)CC(C)(C)S(=O)(=O)c2cccc(C(F)(F)F)c2)ccc1O` [Compound 153, N-(4-hydroxy-3-methoxyphenetnyl)-3-methyl-3-((3-(trifluoromethyl)phenyl)sulfonyl)butanamide], the IC50 was found to be 1220 nM. As to `CC(C)(CNC(=O)c1ccnc(C(F)(F)F)c1)S(=O)(=O)c1cccc(C(F)(F)F)c1` [Compound 179, N-(2-methyl-2-((3-(trifluoromethyl)phenyl)sulfonyl)propyl)-2-(trifluoromethyl)isonicotinamide], the IC50 is 1240 nM. Regarding `CC(C)(CCNC(=O)c1cc(F)ccc1S(C)(=O)=O)S(=O)(=O)c1cccc(C(F)(F)F)c1` [Compound 194, 5-fluoro-N-(3-methyl-3-((3-(trifluoromethyl)phenyl)sulfonyl)butyl)-2-(methylsulfonyl)benzamide], the IC50 came to 1530 nM. As for `CCOc1ncccc1C(=O)NCC(C)(C)S(=O)(=O)c1cccc(C(F)(F)F)c1` [Compound 162, 2-ethoxy-N-(2-methyl-2-((3-(trifluoromethyl)phenyl)sulfonyl)propyl)nicotinamide], the IC50 is 2630 nM.

As to `CC(C)(NC(=O)CC(C)(C)S(=O)(=O)c1cccc(C(F)(F)F)c1)c1ccccc1` [Compound 152, 3-methyl-N-(2-phenylpropan-2-yl)-3-((3-(trifluoromethyl)phenyl)sulfonyl)butanamide], the IC50 was found to be 4240 nM. `CC(C)(CCNC(=O)Cc1cccc(S(C)(=O)=O)c1)S(=O)(=O)c1cccc(C(F)(F)F)c1` [Compound 193, N-(3-methyl-3-((3-(trifluoromethyl)phenyl)sulfonyl)butyl)-2-(3-(methylsulfonyl)phenyl)acetamide]: the IC50 was determined as 1680 nM.

In the case of `Cc1cncc(C(=O)NCC(C)(C)S(=O)(=O)c2cccc(C(F)(F)F)c2)c1` [Compound 173, 5-methyl-N-(2-methyl-2-((3-(trifluoromethyl)phenyl)sulfonyl)propyl)nicotinamide], the IC50 is 9060 nM. Consider `CN1CCCCC1C(=O)NCCC(C)(C)S(=O)(=O)c1cccc(C(F)(F)F)c1` (stereo not shown) [Compound 221, 1-methyl-N-(3-methyl-3-((3-(trifluoromethyl)phenyl)sulfonyl)butyl)piperidine-2-carboxamide], for which the IC50 stood at 6100 nM. Same read-out and setting: the figure for `COc1cc(CCNC(=O)C(C)(C)S(=O)(=O)c2cccc(C(F)(F)F)c2)ccc1O` [Compound 139, N-(4-hydroxy-3-methoxyphenethyl)-2-methyl-2-((3-(trifluoromethyl)phenyl)sulfonyl)propanamide] is 1220 nM; for `CNC(C)(C)C(=O)NCCC(C)(C)S(=O)(=O)c1cccc(C(F)(F)F)c1` [Compound 204, 2-methyl-N-(3-methyl-3-((3-(trifluoromethyl)phenyl)sulfonyl)butyl)-2-(methylamino)propanamide] it is 10200 nM.
